Measured values reported in patent US7939546B2, “Quinoline derivatives for modulating DNA methylation” (SuperGen, Inc., priority 2007, dated 2011).
Counter-ions that a name gives are not always drawn. Like-named read-outs stand apart in the source and are kept apart here.

Assays:
[1] = test system: CMV-EE210 cell line containing the epigenetically silenced GFP transgene; test: Cell-based GFP assay for demethylating activity (reactivation of silenced GFP transgene); conditions: for GFP Expression Level: test compound 30-50 μM, decitabine at 11 M (so in the source), three days; for IC50: read-out: GFP IC50
Procedure: (§1) The demethylating activity of non-bis-quaternary 4-anilinoquinolines were tested in a cell-based GFP (green fluorescent protein) assay. This assay has a GFP gene regulated by the CMV promoter and is sensitive to the methylation of CpG sites within the promoter. A decrease in methylation resulting from exposure to a methylation inhibitor leads to GFP expression and is readily scored. Specifically, the CMV-EE210 cell line containing the epigenetically silenced GFP transgene was used to assay for reactivation of GFP expression by flow cytometry. CMV-EE210 was made by transfecting NIH 3T3 cells with the pTR-UF/UF1/UF2 plasmid (Zolotuhin et al., 1996), which is comprised of pBS(+) (Stratagene, Inc.) containing a cytomegalovirus (CMV) promoter driving a humanized GFP gene adapted for expression in mammalian cells. After transfection, high-level GFP expressing cells were initially selected by FACS analysis and sorting using a MoFlo cytometer (Cytomation, Inc.). […] To screen for reactivation of CMV-EE210, decitabine (at […]) or a test compound (at a concentration of 30-50 μM) was added to complete medium (phenol red free DMEM (Gibco, Life Technologies) supplemented with 10% fetal bovine serum (Hyclone)). Cells were then seeded to 30% confluence (˜5000 cell/well) in 96 well plate containing the test compounds and grown for three days in at 37° C. in 5% CO2. The plates were examined under a fluorescent microscope using a 450-490 excitation filter (13 filter cube, Leica, Deerfield Ill.). Wells were scored g1 positive if 10% of viable cells express GFP, g2 positive if 30% of viable cells express GFP and g3 if greater than 75% of the viable cells express GFP. GFP IC 50 is the concentration of an inhibitor that (like an IC50) is the dose at which the GFP expression level goes from g3 to g1/2.

CMV-EE210 cell line = test: Toxicity (TD50, cell viability) reported with the GFP assay; conditions: for TD50: Dose at which cells are >50% viable
Procedure: as §1

DNMT1 = DNMT1 (Homo sapiens, UniProt P26358); test: Selective depletion of DNMT1 by Western blot in treated HCT116 cells; format: cell-based; set-up: Protein extracts (equivalent to 100 μg) were isolated from HCT116 cells; endogenous in cells; host or cells: HCT116; conditions: for % DNMT1 protein level remaining at 5 µM: HCT-116, 5 μM; for % DNMT1 protein level remaining at 10 µM: HCT-116, 10 μM; for % DNMT1 protein level remaining at 100 µM: HCT-116, 100 μM
DNMT1, sequence (P26358 whole entry): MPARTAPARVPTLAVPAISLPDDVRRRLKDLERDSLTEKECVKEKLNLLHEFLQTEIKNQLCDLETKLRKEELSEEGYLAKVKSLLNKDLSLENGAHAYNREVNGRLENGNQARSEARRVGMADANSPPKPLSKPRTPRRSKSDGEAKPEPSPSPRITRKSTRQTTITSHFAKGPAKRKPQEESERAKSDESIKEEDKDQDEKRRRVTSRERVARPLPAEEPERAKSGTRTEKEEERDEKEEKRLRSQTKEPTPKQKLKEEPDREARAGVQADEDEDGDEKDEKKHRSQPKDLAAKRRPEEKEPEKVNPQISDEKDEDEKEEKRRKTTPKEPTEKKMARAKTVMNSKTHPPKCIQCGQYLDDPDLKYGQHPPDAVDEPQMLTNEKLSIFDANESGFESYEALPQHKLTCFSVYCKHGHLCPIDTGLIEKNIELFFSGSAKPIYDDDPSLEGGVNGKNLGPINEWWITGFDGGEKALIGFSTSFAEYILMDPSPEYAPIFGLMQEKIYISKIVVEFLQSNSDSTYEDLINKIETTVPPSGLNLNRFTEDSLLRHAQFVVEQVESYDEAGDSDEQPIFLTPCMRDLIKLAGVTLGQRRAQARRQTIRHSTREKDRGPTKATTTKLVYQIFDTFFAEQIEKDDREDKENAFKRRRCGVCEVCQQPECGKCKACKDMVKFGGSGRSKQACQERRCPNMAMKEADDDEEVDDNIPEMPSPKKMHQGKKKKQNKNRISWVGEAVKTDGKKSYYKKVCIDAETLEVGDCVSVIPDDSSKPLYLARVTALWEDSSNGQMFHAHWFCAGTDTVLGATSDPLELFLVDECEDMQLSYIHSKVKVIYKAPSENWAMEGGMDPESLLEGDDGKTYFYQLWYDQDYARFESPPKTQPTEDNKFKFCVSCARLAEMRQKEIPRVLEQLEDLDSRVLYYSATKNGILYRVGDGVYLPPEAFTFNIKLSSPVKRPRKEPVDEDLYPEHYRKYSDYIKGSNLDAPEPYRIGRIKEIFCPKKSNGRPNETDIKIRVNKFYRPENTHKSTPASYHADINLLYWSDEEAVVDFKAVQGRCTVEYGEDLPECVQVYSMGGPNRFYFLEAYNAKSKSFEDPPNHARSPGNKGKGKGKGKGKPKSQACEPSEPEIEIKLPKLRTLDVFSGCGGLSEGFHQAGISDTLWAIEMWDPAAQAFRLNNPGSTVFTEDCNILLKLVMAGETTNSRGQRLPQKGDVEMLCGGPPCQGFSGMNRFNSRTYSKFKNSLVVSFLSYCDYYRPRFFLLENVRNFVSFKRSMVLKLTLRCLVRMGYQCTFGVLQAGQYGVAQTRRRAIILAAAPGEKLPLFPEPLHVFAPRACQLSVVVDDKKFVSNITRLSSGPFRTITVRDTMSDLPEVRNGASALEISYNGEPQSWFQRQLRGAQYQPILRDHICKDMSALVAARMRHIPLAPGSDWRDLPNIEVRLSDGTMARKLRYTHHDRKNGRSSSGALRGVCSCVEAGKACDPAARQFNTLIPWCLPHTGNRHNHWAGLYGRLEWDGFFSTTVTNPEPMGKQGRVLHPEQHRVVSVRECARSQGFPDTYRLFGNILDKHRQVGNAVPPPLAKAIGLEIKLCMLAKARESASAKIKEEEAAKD
Excerpt: Biol. 2005, 11, 4727-41.]. For DNMT1, commercially available antibodies from Santa Cruz or New England Biolabs were used.

[2] = dose at which the GFP expression level goes from g3 to g1/2

Compound | GFP Expression Level [1] | TD50 (CMV-EE210 cell line) [µM] | % DNMT1 Level (DNMT1; 5 μM) [%] | % DNMT1 Level (DNMT1; 10 μM) [%] | % DNMT1 Level (DNMT1; 100 μM) [%] | IC50 [1] [µM] | toxicity relative to decitabine (CMV-EE210 cell line) | % DNMT1 protein level remaining at 5 µM (DNMT1) [%] | % DNMT1 protein level remaining at 10 µM (DNMT1) [%] | % DNMT1 protein level remaining at 100 µM (DNMT1) [%] | IC50 [1, 2] [µM] | melting point [°C]
CN(C)c1ccc2c(Nc3ccc(C(=O)Nc4ccc(Nc5cc[n+](C)cc5)cc4)cc3)ccnc2c1.Cl.[Cl-] [Cpd. AA] | g2 (g2 positive if 30% of viable cells express GFP) | 25 | 136 | 101 | 32 |  |  |  |  |  |  | 
Cc1cc(Nc2ccc(NC(=O)c3ccc(Nc4ccnc5cc(N(C)C)ccc45)cc3)cc2)nc(N)n1 [Cpd. BB, N-[4-(2-amino-6-methylpyrimidin-4-ylamino)phenyl]-4-(7-(dimethylamino)quinolin-4-ylamino)benzamide hydrochloride] |  | 25 |  |  |  | 100 | less than one-half as toxic as decitabine | 106 | 76 | 32 |  | 
C[n+]1ccc(Nc2cccc(C(=O)Nc3ccc(Nc4ccnc5ccccc45)cc3)c2)cc1.Cl.[Cl-] [Cpd. C, 4-[4-({3-[(1-methyl-4-pyridiniumyl)amino]benzoyl}amino)anilino]quinolinium dichloride] | g1 (g1 positive if 10% of viable cells express GFP) | 25 | 31 | 33 | 34 |  |  |  |  |  | 50 | 
C[n+]1ccc(Nc2ccc(C(=O)Nc3ccc(Nc4ccnc5ccccc45)cc3)cc2)cc1.Cl.[Cl-] [Cpd. D, 4-[4-({4-[(1-methyl-4-pyridiniumyl)amino]benzoyl}amino)anilino]quinolinium dichloride] | g1 (g1 positive if 10% of viable cells express GFP) | 12.5 | 131 | 103 | 74 |  |  |  |  |  |  | 
Cc1cc(Nc2ccc(NC(=O)c3ccc(Nc4ccnc5ccccc45)cc3)cc2)nc(N)n1 [Cpd. E, N-(4-(2-amino-6-methylpyrimidin-4-ylamino)phenyl)-4-(quinolin-4-ylamino)benzamide hydrochloride] | g1 (g1 positive if 10% of viable cells express GFP) | 25 | 11 | 0.5 |  | 12 |  |  |  |  |  | 
Cc1cc(Nc2ccc(NC(=O)c3ccc(Nc4ccnc5ccc([N+](=O)[O-])cc45)cc3)cc2)nc(N)n1 [Cpd. H, N-(4-(2-amino-6-methylpyrimidin-4-ylamino)phenyl)-4-(6-nitroquinolin-4-ylamino)benzamide hydrochloride] |  | 12.5 |  |  |  |  |  | 132 | 25 | 24 |  | 
C/C(=N\N=C(N)N)c1ccc(NC(=O)c2ccc(Nc3ccnc4ccc([N+](=O)[O-])cc34)cc2)cc1 [Cpd. I, (E)-N-[4-{1-([diaminomethylene]hydrazono)ethyl}phenyl]-4-(6-nitroquinolin-4-ylamino)benzamide hydrochloride] |  | 25 |  |  |  |  |  | 27 | 80 | 48 |  | 
C[n+]1ccc(Nc2cccc(C(=O)Nc3ccc(Nc4ccnc5ccc([N+](=O)[O-])cc45)cc3)c2)cc1 [Cpd. J, 4-[4-({3-[(1-methyl-4-pyridiniumyl)amino]benzoyl}amino)anilino]-6-nitroquinolinium dichloride] |  | 12.5 |  |  |  |  |  | 101 | 89 | 59 |  | > 300
C[n+]1ccc(Nc2cccc(NC(=O)c3ccc(Nc4ccnc5ccc(N)cc45)cc3)c2)cc1 [Cpd. K, 4-[3-({4-[(6-ammonio-4-quinolinyl)amino]benzoyl}amino)anilino]-1-methylpyridinium dichloride] |  | 12.5 |  |  |  |  |  | 98 | 92 | 37 |  | 270 to 274
C[n+]1ccc(Nc2cccc(C(=O)Nc3ccc(Nc4ccnc5ccc(N)cc45)cc3)c2)cc1 [Cpd. M, 6-amino-4-[4-({3-[(1-methyl-4-pyridiniumyl)amino]benzoyl}amino)anilino]quinolinium dichloride] |  | 25 |  |  |  |  |  | 30 | 40 | 43 |  | > 310
C[n+]1ccc(Nc2ccc(C(=O)Nc3ccc(Nc4ccnc5ccc(N)cc45)cc3)cc2)cc1 [Cpd. N, 4-[4-({4-[(6-amino-4-quinolinyl)amino]anilino}carbonyl)anilino]-1-methylpyridinium chloride] | g2 (g2 positive if 30% of viable cells express GFP) | 50 |  |  |  | 100 |  | 160 | 152 | 130 |  | 
C[n+]1ccc(Nc2cccc(NC(=O)c3ccc(Nc4ccnc5cc([N+](=O)[O-])ccc45)cc3)c2)cc1 [Cpd. R, 1-methyl-4-[3-({4-[(7-nitro-4-quinolinyl)amino]benzoyl}amino)anilino]pyridinium chloride] |  | 25 |  |  |  |  |  | 160 | 170 | 165 |  | 
C[n+]1ccc(Nc2cccc(C(=O)Nc3ccc(Nc4ccnc5cc([N+](=O)[O-])ccc45)cc3)c2)cc1.Cl.[Cl-] [Cpd. T, 4-[4-({3-[(1-methyl-4-pyridiniumyl)amino]benzoyl}amino)anilino]-7-nitroquinolinium dichloride] |  | 25 | 64 | 69 | 85 |  |  |  |  |  |  | 
C[n+]1ccc(Nc2ccc(C(=O)Nc3ccc(Nc4ccnc5cc([N+](=O)[O-])ccc45)cc3)cc2)cc1.Cl.[Cl-] [Cpd. U, 4-[4-({4-[(1-methyl-4-pyridiniumyl)amino]benzoyl}amino)anilino]-7-nitroquinolinium dichloride] |  | 25 | 97 | 53 | 32 |  |  |  |  |  |  | 
C[n+]1ccc(Nc2cccc(NC(=O)c3ccc(Nc4ccnc5cc(N)ccc45)cc3)c2)cc1 [Cpd. V, 4-[3-({4-[(7-ammonio-4-quinolinyl)amino]benzoyl}amino)anilino]-1-methylpyridinium dichloride] |  | 12.5 |  |  |  |  |  | 112 | 110 | 124 |  | 281 to 285
C[n+]1ccc(Nc2cccc(C(=O)Nc3ccc(Nc4ccnc5cc(N)ccc45)cc3)c2)cc1.Cl.[Cl-] [Cpd. X, 7-amino-4-[4-({3-[(1-methyl-4-pyridiniumyl)amino]benzoyl}amino)anilino]quinolinium dichloride] | g2 (g2 positive if 30% of viable cells express GFP) | 25 | 49 | 98 | 73 |  |  |  |  |  | 50 | 
C[n+]1ccc(Nc2ccc(C(=O)Nc3ccc(Nc4ccnc5cc(N)ccc45)cc3)cc2)cc1 [Cpd. Y, 4-[4-({4-[(7-amino-4-quinolinyl)amino]anilino}carbonyl)anilino]-1-methylpyridinium chloride] | g1 (g1 positive if 10% of viable cells express GFP) | 25 |  |  |  | 100 |  | 93 | 63 | 77 |  | 
CN(C)c1ccc2c(Nc3ccc(C(=O)Nc4cccc(Nc5cc[n+](C)cc5)c4)cc3)ccnc2c1.Cl.[Cl-] [Cpd. Z, 7-(dimethylamino)-4-[4-({3-[(1-methyl-4-pyridiniumyl)amino]anilino}carbonyl)anilino]quinolinium dichloride] |  | 25 | 83 | 115 | 87 |  | less than one-half as toxic as decitabine |  |  |  | 1 | 
Nc1ncn([C@H]2C[C@H](O)[C@@H](CO)O2)c(=O)n1 [Decitabine, 5-aza-2′-deoxycytidine, reference compound] |  | 12.5 |  |  |  |  |  | 0 to 5 |  |  | 0.39 | 
